# Reference: PMC10382351, “In vivo evaluation of a novel ^18F-labeled PET radioligand for translocator protein 18 kDa (TSPO) in monkey brain” (European Journal of Nuclear Medicine and Molecular Imaging, 2023)
# Tests used:
# [1] = Parent radioactivity and radiometabolite analysis in arterial plasma (HPLC); format: in vivo, rhesus monkey; details: for Peak parent concentration in arterial plasma: n = 3
# Protocol: (§1) Arterial blood sampling was performed in all scans to determine plasma parent concentration of the radioligand. Seventeen blood samples were drawn from an implanted port in the femoral artery of the monkeys during the 180-min PET scans at 15-s intervals for the first two minutes, followed by samples at 3, 5, 10, 30, 60, 90, 120, 150, and 180 min (volumes varied from 1.0 to 5.0 mL). Radioactivity in plasma was quantified and corrected for radiometabolites using high-performance liquid chromatography (HPLC). The separation was performed on an X-Terra C18 column (10 µm, 7.8 × 300 mm) with an isocratic mobile phase composed of methanol: water: triethylamine (77.5:22.5:0.1 by vol.) at a flow rate of 5 mL/min. The plasma free fraction (fP) was measured by ultrafiltration, as previously described. A standard fP was measured in a frozen aliquot of pooled plasma in parallel with the experimental blood sample, and as internal standard it was then used to normalize the measured fP of the blood samples.
# [2] = Plasma free fraction (fP) by ultrafiltration; format: in vitro ADME, rhesus monkey; details: for Plasma free fraction fP / fraction unbound: n = 3; for fraction unbound: male, rhesus monkey, plasma
# Protocol: as §1
# TSPO = biological target: T1, TSPO (Mus musculus, UniProt P50637); assay: PET study in mice at baseline and after PK11195; format: in vivo
# T1 construct: from tissue; host or cells: living mice, whole-brain ROI, also lung (in vivo PET)
# Protocol: Imaging experiments were performed on a microPET Focus 120 camera (Siemens Medical Solution; Knoxville, TN). Mice were anesthetized with 1.5% isoflurane in oxygen at a flow rate of 1 L/min. [^18F]SF51 (150 µL; 2.9 ± 0.6 MBq) was injected intravenously through the tail vein of each mouse. Baseline scans were obtained in 12 mice, and another eight mice were imaged after pre-administration of 5 mg/kg PK11195. Scans were acquired for 120 min. Data were histogrammed into 24 time frames (6 × 20, 5 × 60, 4 × 120, 3 × 300, 3 × 600 and 3 × 1200 s) and reconstructed using Fourier rebinning plus a two-dimensional filtered back projection. No scatter or attenuation corrections were applied. PET images were analyzed using PMOD with a single ROI of the whole brain.
# [3] = representative radiochromatogram, baseline study, at 30 minutes
# [4] = mouse, after blockade with PK11195
smiles,measurement,setting,value
CC[C@@H](C)N(C)C(=O)c1nc(-c2cccc([18F])c2)c2ccccc2n1 [[^18F]SF51],Average percentage of parent in plasma,"[1]; at 120 min, roughly the same until 180 min, HPLC",25%
same,Peak parent concentration in arterial plasma,[1]; baseline,4.1 ± 0.4 SUV
same,Peak parent concentration in arterial plasma,[1]; blocked with PK11195 5 mg/kg,7.5 ± 1.7 SUV
same,Number of radiometabolites in plasma (more hydrophilic than the parent),"[1]; monkey arterial plasma, HPLC",At least five
same,Parent in arterial plasma,[1]; [3],36%
same,Total radiometabolites in arterial plasma,[1]; [3],64%
same,Plasma free fraction fP,[2]; baseline scans,6 ± 1%
same,Plasma free fraction fP,[2]; blocked scans (PK11195),19 ± 4%
same,fraction unbound,[2]; baseline scans,0.064 ± 0.007
same,fraction unbound,[2]; blocked scans (PK11195),0.188 ± 0.036
same,fPblock,"[2]; one monkey, after PBR28 pre-blockade (5 mg/kg)",19.3%
same,fPbase,"[2]; one monkey, baseline scan of the PBR28 experiment",5.7%
same,fP of the internal standard (frozen aliquot of pooled plasma),[2]; six PET scans,2.4 to 3.8%
same,Blockade of radioligand in mouse brain,TSPO; after i.v. 5 mg/kg PK11195,about 80%
same,Radioactivity in bone,TSPO; mouse,No significant increase in radioactivity
same,Uptake in lung (blockable),TSPO; mouse,> 2 SUV
same,Peak brain uptake,TSPO; [4],~ 2.5 SUV
same,Time of peak brain uptake,TSPO; [4],three
same,Peak brain uptake,"TSPO; mouse, baseline",~ 0.8 SUV
same,Time of peak brain uptake,"TSPO; mouse, baseline",around 15 min
same,Brain activity after blockade relative to baseline,"TSPO; mouse, last 80 min of scanning, PK11195",25 % of that at baseline
